We go through 17 compounds from patent US20260041781A1, “NOVEL GLUCOCORTICOID RECEPTOR AGONISTS AND IMMUNOCONJUGATES THEREOF” (priority 2022, published 2026).

For this assay, the target named is T1, GR LBD (ligand binding domain) (Homo sapiens, UniProt P04150).
T1 construct: expressed in transfected cells; host or cells: HEK293
T1 sequence (P04150 524-758 limits assumed): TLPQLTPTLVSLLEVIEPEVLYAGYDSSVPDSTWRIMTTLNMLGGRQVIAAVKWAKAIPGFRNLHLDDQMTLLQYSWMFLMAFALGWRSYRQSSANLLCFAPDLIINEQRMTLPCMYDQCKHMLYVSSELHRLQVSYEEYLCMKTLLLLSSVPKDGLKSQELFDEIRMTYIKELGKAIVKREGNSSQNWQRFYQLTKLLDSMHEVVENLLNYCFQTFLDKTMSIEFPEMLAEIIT
The experiment in a line: GR Reporter Assay (pBind assay, pG5luc luciferase reporter, agonist mode). It counts as cell-based. The following applies: HEK293 cells transiently transfected with pG5luc and GR LBD. Here is the method: The assay is a pBind assay following the general principle outlined below. 2×10^4 HEK293 cells/96-well are transiently transfected with pG5luc and GR LBD 1:1 at 50 ng/well. GR LBD (ligand binding domain) is a […] fusion protein (used to yeast GAL4) and upon binding to the test article will bind the luciferase reporter and activate transcription of luciferase. Upon addition of a substrate, the luciferase activity can be measured and corresponds to the activity of the test article. The assay is performed in agonist mode.

Molecules are shown by their SMILES.

Take `C[C@]12C=CC(=O)C=C1CC[C@H]1[C@@H]3C[C@H]4O[C@H](c5cccc(N)c5)O[C@@]4(C(=O)CCl)[C@@]3(C)C[C@H](O)[C@@]12F` [Compound 1]: the EC50 (in general, the concentration needed to bring the measured effect to its halfway point) was under 5 nM.

As for `C[C@]12C=CC(=O)C=C1CC[C@H]1[C@@H]3C[C@H]4O[C@@H](c5cccc(N)c5)O[C@@]4(C(=O)CCl)[C@@]3(C)C[C@H](O)[C@@]12F` [Compound 2], the EC50 was under 5 nM.

Turning to `C[C@]12C=CC(=O)C=C1CC[C@H]1[C@@H]3C[C@H]4O[C@@H](c5cccc(N)c5)O[C@@]4(C(=O)CF)[C@@]3(C)C[C@H](O)[C@@]12F` [Compound 3], the concentration for a half-maximal effect (EC50) was under 5 nM.

Compound `C[C@@H]1C[C@H]2[C@@H]3C[C@H](F)C4=CC(=O)C=C[C@]4(C)[C@@]3(F)[C@@H](O)C[C@]2(C)[C@@]1(OC(=O)c1ccco1)C(=O)NCCOc1ccc(N)cc1` [Compound 7] displayed an EC50 of under 5 nM.

In turn, `C[C@@H]1C[C@H]2[C@@H]3C[C@H](F)C4=CC(=O)C=C[C@]4(C)[C@@]3(F)[C@@H](O)C[C@]2(C)[C@@]1(OC(=O)c1cccc(N)c1)C(=O)N(C)C` [Compound 8] had an EC50 of under 5 nM.

In the case of `C[C@@H]1C[C@H]2[C@@H]3C[C@H](F)C4=CC(=O)C=C[C@]4(C)[C@@]3(F)[C@@H](O)C[C@]2(C)[C@@]1(OC(=O)c1ccc(N)cc1)C(=O)N(C)C` [Compound 9], the EC50 was under 5 nM.

`CNC(=O)[C@@]1(OC(=O)c2cccc(N)c2)[C@H](C)C[C@H]2[C@@H]3C[C@H](F)C4=CC(=O)C=C[C@]4(C)[C@@]3(F)[C@@H](O)C[C@@]21C` [Compound 10] returned an EC50 of over 30 nM.

`CNC(=O)[C@@]1(OC(=O)c2ccc(N)cc2)[C@H](C)C[C@H]2[C@@H]3C[C@H](F)C4=CC(=O)C=C[C@]4(C)[C@@]3(F)[C@@H](O)C[C@@]21C` [Compound 11] returned an EC50 of over 30 nM.

For `C[C@@H]1C[C@H]2[C@@H]3CCC4=CC(=O)C=C[C@]4(C)[C@@]3(F)[C@@H](O)C[C@]2(C)[C@@]1(OC(=O)c1cccc(N)c1)C(=O)N(C)C` [Compound 12], the EC50 was under 5 nM.

For `C[C@@H]1C[C@H]2[C@@H]3C[C@H](F)C4=CC(=O)C=C[C@]4(C)[C@@]3(F)[C@@H](O)C[C@]2(C)[C@@]1(OC(=O)c1cccc(N)c1)C(=O)N1CCCC1` [Compound 14], the EC50 is over 30 nM.

The compound `C[C@@H]1C[C@H]2[C@@H]3C[C@H](F)C4=CC(=O)C=C[C@]4(C)[C@@]3(F)[C@@H](O)C[C@]2(C)[C@@]1(OC(=O)c1cccc(N)c1)C(=O)N1CCOCC1` [Compound 15] came in with an EC50 of over 30 nM.

For the compound `C[C@@H]1C[C@H]2[C@@H]3C[C@H](F)C4=CC(=O)C=C[C@]4(C)[C@@]3(F)[C@@H](O)C[C@]2(C)[C@@]1(OC(=O)c1cccc(N)c1)C(=O)N1CC(CO)C1` [Compound 17], the EC50 is over 30 nM.

As to `C[C@@H]1C[C@H]2[C@@H]3C[C@H](F)C4=CC(=O)C=C[C@]4(C)[C@@]3(F)[C@@H](O)C[C@]2(C)[C@@]1(OC(=O)c1cccc(N)c1)C(=O)N(C)CCO` [Compound 18], the EC50 was over 30 nM.

In turn, `C[C@@H]1C[C@H]2[C@@H]3C[C@H](F)C4=CC(=O)C=C[C@]4(C)[C@@]3(F)[C@@H](O)C[C@]2(C)[C@@]1(OC(=O)c1cccc(N)c1)C(=O)NCCO` [Compound 19] came in with an EC50 of over 30 nM.

Regarding `C[C@@H]1C[C@H]2[C@@H]3C[C@H](F)C4=CC(=O)C=C[C@]4(C)[C@@]3(F)[C@@H](O)C[C@]2(C)[C@@]1(OC(=O)c1cccc(N)c1)C(=O)N(C)CC(O)CO` (stereo partly drawn) [Compound 20, (6S,8S,9R,10S,11S,13S,14S,16R,17R)-17-((2,3-dihydroxypropyl)(methyl)carbamoyl)-6,9-difluoro-11-hydroxy-10,13,16-trimethyl-3-oxo-6,7,8,9,10,11,12,13,14,15,16,17-dodecahydro-3H-cyclopenta[a]phenanthren-17-yl 3-aminobenzoate], the EC50 is over 30 nM.

`CN(C)C(=O)[C@@]12O[C@H](c3cccc(Cc4cccc(N)c4)c3)O[C@@H]1C[C@H]1[C@@H]3CCC4=CC(=O)C=C[C@]4(C)[C@H]3[C@@H](O)C[C@@]12C` [Compound 23] came in with an EC50 of under 5 nM.

Take `C[C@]12C=CC(=O)C=C1CC[C@@H]1[C@@H]2[C@@H](O)C[C@@]2(C)[C@H]1C[C@H]1O[C@@H](c3ccc(Cc4cccc(N)c4)cc3)O[C@]12C(=O)CF` [Compound 25]: the EC50 is under 5 nM.
